{"source": "ChEMBL document CHEMBL1201862", "about": "“PubChem BioAssay data set” (2004)", "assay_in_all_cases": "NCI tumour cell line growth inhibition, 48 h", "key": {"BT-549": {"system": "BT-549"}, "NCI-H23": {"system": "NCI-H23"}, "EKVX": {"system": "EKVX"}, "MDA-MB-435": {"system": "MDA-MB-435"}, "HOP-62": {"system": "HOP-62"}, "MCF7": {"system": "MCF7"}, "SK-MEL-28": {"system": "SK-MEL-28"}, "NCI-H460": {"system": "NCI-H460"}, "OVCAR-3": {"system": "OVCAR-3"}, "SF-539": {"system": "SF-539"}, "COLO 205": {"system": "COLO 205"}, "MDA-N": {"system": "MDA-N"}, "OVCAR-4": {"system": "OVCAR-4"}, "SK-OV-3": {"system": "SK-OV-3"}, "MDA-MB-231": {"system": "MDA-MB-231"}, "TK-10": {"system": "TK-10"}, "KM12": {"system": "KM12"}, "Malme-3M": {"system": "Malme-3M"}, "CAKI-1": {"system": "CAKI-1"}, "UACC-62": {"system": "UACC-62"}}, "note": "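Growth conditions: 96-well plates. Treatment: test compound, 48 hours, 5 concentrations. Analysis: linear interpolation between bracketing concentrations; unreached endpoints set to highest concentration. At the GI50, growth is halved.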 Active and inactive are the calls of the source. Cut-off read from the data, not from the text of the source: active = GI50 up to about 1.1 µM and inactive = higher.", "data": [{"smiles": "O=C(Cc1ccccc1)NNc1nc(NNC(=O)c2ccncc2)nc(Nc2ccc([N+](=O)[O-])cc2)n1", "values": [{"measurement": "GI50", "setting": "BT-549", "value": "9.51 µM (inactive)"}, {"measurement": "GI50", "setting": "NCI-H23", "value": "6.79 µM (inactive)"}, {"measurement": "GI50", "setting": "EKVX", "value": "9.46 µM (inactive)"}, {"measurement": "GI50", "setting": "MDA-MB-435", "value": "> 10 µM (inactive)"}, {"measurement": "GI50", "setting": "HOP-62", "value": "> 10 µM (inactive)"}, {"measurement": "GI50", "setting": "MCF7", "value": "> 10 µM (inactive)"}, {"measurement": "GI50", "setting": "SK-MEL-28", "value": "> 10 µM (inactive)"}, {"measurement": "GI50", "setting": "NCI-H460", "value": "> 10 µM (inactive)"}, {"measurement": "GI50", "setting": "OVCAR-3", "value": "> 10 µM (inactive)"}, {"measurement": "GI50", "setting": "SF-539", "value": "> 10 µM (inactive)"}, {"measurement": "GI50", "setting": "COLO 205", "value": "> 10 µM (inactive)"}, {"measurement": "GI50", "setting": "MDA-N", "value": "8.59 µM (inactive)"}, {"measurement": "GI50", "setting": "OVCAR-4", "value": "> 10 µM (inactive)"}, {"measurement": "GI50", "setting": "SK-OV-3", "value": "> 10 µM (inactive)"}, {"measurement": "GI50", "setting": "MDA-MB-231", "value": "> 10 µM (inactive)"}, {"measurement": "GI50", "setting": "TK-10", "value": "> 10 µM (inactive)"}, {"measurement": "GI50", "setting": "KM12", "value": "> 10 µM (inactive)"}, {"measurement": "GI50", "setting": "Malme-3M", "value": "> 10 µM (inactive)"}, {"measurement": "GI50", "setting": "CAKI-1", "value": "> 10 µM (inactive)"}, {"measurement": "GI50", "setting": "UACC-62", "value": "9.38 µM (inactive)"}]}, {"smiles": "CC1CCC(=O)C(C(=O)CC2CC(=O)NC(=O)C2)C1", "note": "(stereo not given)", "values": [{"measurement": "GI50", "setting": "BT-549", "value": "> 100 µM (inactive)"}, {"measurement": "GI50", "setting": "NCI-H23", "value": "> 100 µM (inactive)"}, {"measurement": "GI50", "setting": "EKVX", "value": "> 100 µM (inactive)"}, {"measurement": "GI50", "setting": "MDA-MB-435", "value": "> 100 µM (inactive)"}, {"measurement": "GI50", "setting": "HOP-62", "value": "> 100 µM (inactive)"}, {"measurement": "GI50", "setting": "MCF7", "value": "> 100 µM (inactive)"}, {"measurement": "GI50", "setting": "SK-MEL-28", "value": "> 100 µM (inactive)"}, {"measurement": "GI50", "setting": "NCI-H460", "value": "> 100 µM (inactive)"}, {"measurement": "GI50", "setting": "OVCAR-3", "value": "> 100 µM (inactive)"}, {"measurement": "GI50", "setting": "SF-539", "value": "> 100 µM (inactive)"}, {"measurement": "GI50", "setting": "COLO 205", "value": "> 100 µM (inactive)"}, {"measurement": "GI50", "setting": "MDA-N", "value": "> 100 µM (inactive)"}, {"measurement": "GI50", "setting": "OVCAR-4", "value": "> 100 µM (inactive)"}, {"measurement": "GI50", "setting": "SK-OV-3", "value": "> 100 µM (inactive)"}, {"measurement": "GI50", "setting": "MDA-MB-231", "value": "> 100 µM (inactive)"}, {"measurement": "GI50", "setting": "TK-10", "value": "> 100 µM (inactive)"}, {"measurement": "GI50", "setting": "KM12", "value": "> 100 µM (inactive)"}, {"measurement": "GI50", "setting": "Malme-3M", "value": "> 100 µM (inactive)"}, {"measurement": "GI50", "setting": "CAKI-1", "value": "> 100 µM (inactive)"}, {"measurement": "GI50", "setting": "UACC-62", "value": "> 100 µM (inactive)"}]}, {"smiles": "O=C1NC(=O)C2(CCC(O)C2)c2cc[n+]([O-])cc21", "note": "(stereo not given)", "values": [{"measurement": "GI50", "setting": "BT-549", "value": "> 100 µM (inactive)"}, {"measurement": "GI50", "setting": "NCI-H23", "value": "> 100 µM (inactive)"}, {"measurement": "GI50", "setting": "EKVX", "value": "71.8 µM (inactive)"}, {"measurement": "GI50", "setting": "MDA-MB-435", "value": "> 100 µM (inactive)"}, {"measurement": "GI50", "setting": "HOP-62", "value": "> 100 µM (inactive)"}, {"measurement": "GI50", "setting": "MCF7", "value": "> 100 µM (inactive)"}, {"measurement": "GI50", "setting": "SK-MEL-28", "value": "> 100 µM (inactive)"}, {"measurement": "GI50", "setting": "NCI-H460", "value": "> 100 µM (inactive)"}, {"measurement": "GI50", "setting": "OVCAR-3", "value": "> 100 µM (inactive)"}, {"measurement": "GI50", "setting": "SF-539", "value": "> 100 µM (inactive)"}, {"measurement": "GI50", "setting": "COLO 205", "value": "> 100 µM (inactive)"}, {"measurement": "GI50", "setting": "MDA-N", "value": "> 100 µM (inactive)"}, {"measurement": "GI50", "setting": "OVCAR-4", "value": "> 100 µM (inactive)"}, {"measurement": "GI50", "setting": "SK-OV-3", "value": "> 100 µM (inactive)"}, {"measurement": "GI50", "setting": "MDA-MB-231", "value": "> 100 µM (inactive)"}, {"measurement": "GI50", "setting": "TK-10", "value": "> 100 µM (inactive)"}, {"measurement": "GI50", "setting": "KM12", "value": "> 100 µM (inactive)"}, {"measurement": "GI50", "setting": "Malme-3M", "value": "> 100 µM (inactive)"}, {"measurement": "GI50", "setting": "CAKI-1", "value": "> 100 µM (inactive)"}, {"measurement": "GI50", "setting": "UACC-62", "value": "> 100 µM (inactive)"}]}, {"smiles": "CN(C)CCN1C(=O)c2cccc3cc([N+](=O)[O-])cc(c23)C1=O", "note": "[MITONAFIDE]", "values": [{"measurement": "GI50", "setting": "BT-549", "value": "0.904 µM (active)"}, {"measurement": "GI50", "setting": "NCI-H23", "value": "0.308 µM (active)"}, {"measurement": "GI50", "setting": "EKVX", "value": "0.624 µM (active)"}, {"measurement": "GI50", "setting": "MDA-MB-435", "value": "1.75 µM (inactive)"}, {"measurement": "GI50", "setting": "HOP-62", "value": "0.146 µM (active)"}, {"measurement": "GI50", "setting": "MCF7", "value": "0.165 µM (active)"}, {"measurement": "GI50", "setting": "SK-MEL-28", "value": "1.34 µM (inactive)"}, {"measurement": "GI50", "setting": "NCI-H460", "value": "0.0803 µM (active)"}, {"measurement": "GI50", "setting": "OVCAR-3", "value": "1.37 µM (inactive)"}, {"measurement": "GI50", "setting": "SF-539", "value": "0.155 µM (active)"}, {"measurement": "GI50", "setting": "COLO 205", "value": "0.191 µM (active)"}, {"measurement": "GI50", "setting": "MDA-N", "value": "1.49 µM (inactive)"}, {"measurement": "GI50", "setting": "OVCAR-4", "value": "1.2 µM (inactive)"}, {"measurement": "GI50", "setting": "SK-OV-3", "value": "0.198 µM (active)"}, {"measurement": "GI50", "setting": "MDA-MB-231", "value": "1.31 µM (inactive)"}, {"measurement": "GI50", "setting": "TK-10", "value": "2.13 µM (inactive)"}, {"measurement": "GI50", "setting": "KM12", "value": "0.321 µM (active)"}, {"measurement": "GI50", "setting": "Malme-3M", "value": "0.404 µM (active)"}, {"measurement": "GI50", "setting": "CAKI-1", "value": "0.153 µM (active)"}, {"measurement": "GI50", "setting": "UACC-62", "value": "0.247 µM (active)"}]}, {"smiles": "O=C(CCCCCCC(=O)Nc1cccnc1)NO", "note": "[PYROXAMIDE]", "values": [{"measurement": "GI50", "setting": "BT-549", "value": "> 100 µM (inactive)"}, {"measurement": "GI50", "setting": "NCI-H23", "value": "13 µM (inactive)"}, {"measurement": "GI50", "setting": "EKVX", "value": "47.5 µM (inactive)"}, {"measurement": "GI50", "setting": "MDA-MB-435", "value": "2.79 µM (inactive)"}, {"measurement": "GI50", "setting": "HOP-62", "value": "7.16 µM (inactive)"}, {"measurement": "GI50", "setting": "MCF7", "value": "3.8 µM (inactive)"}, {"measurement": "GI50", "setting": "SK-MEL-28", "value": "4.4 µM (inactive)"}, {"measurement": "GI50", "setting": "NCI-H460", "value": "2.82 µM (inactive)"}, {"measurement": "GI50", "setting": "OVCAR-3", "value": "2.86 µM (inactive)"}, {"measurement": "GI50", "setting": "SF-539", "value": "3.09 µM (inactive)"}, {"measurement": "GI50", "setting": "COLO 205", "value": "2.77 µM (inactive)"}, {"measurement": "GI50", "setting": "MDA-N", "value": "2.62 µM (inactive)"}, {"measurement": "GI50", "setting": "OVCAR-4", "value": "10.4 µM (inactive)"}, {"measurement": "GI50", "setting": "SK-OV-3", "value": "5.19 µM (inactive)"}, {"measurement": "GI50", "setting": "MDA-MB-231", "value": "> 100 µM (inactive)"}, {"measurement": "GI50", "setting": "TK-10", "value": "7.11 µM (inactive)"}, {"measurement": "GI50", "setting": "KM12", "value": "2.93 µM (inactive)"}, {"measurement": "GI50", "setting": "Malme-3M", "value": "0.902 µM (active)"}, {"measurement": "GI50", "setting": "CAKI-1", "value": "16.6 µM (inactive)"}, {"measurement": "GI50", "setting": "UACC-62", "value": "3.34 µM (inactive)"}]}]}
